Measured values reported in patent US20230002346A1, “NEW COMPOUNDS AND METHODS” (BenevolentAl Bio Limited, priority 2019, published 2023).
pIC50: −log10 of the molar value. Converted amounts (≈) assume the structure as drawn.

Biological target: T1, hERG channel (Homo sapiens, UniProt Q12809)
T1 construct: expressed in transfected cells
Experiment: hERG assay (QPatch automated patch clamp, CHO cells)
Format: cell-based
Details: CHO cells expressing hERG, whole-cell patch clamp, 0.003 μM to 10 μM
Description: The human ether-a-go-go related gene (hERG) potassium channel (Kv11.1) contributes to human cardiac action potential repolarisation. Inhibition of hERG channels can prolong the human cardiac action potential, resulting in QTc prolongation and potentially lethal arrhythmias (e.g. Torsade de Pointes).
Test samples were screened against the hERG channel on a QPatch 48 gigaseal automated patch clamp platform, using a Chinese Hamster Ovary (CHO) cell line stably expressing the human ether-á-go-go related gene, which encodes the hERG channel. All recordings were made in the conventional whole-cell configuration and performed at RT ([…]) using standard single hole chips (Rchip 1.5-4M0). Series resistance (4-15Mc) was compensated by >80%. Currents were elicited from a holding potential of −90 mV using the industry standard “^+40/−40” voltage protocol, which was applied at a stimulus frequency of 0.1 Hz. On achieving the whole-cell configuration, vehicle (0.1% DMSO v/v in external recording solution) was applied to each cell in two bolus additions with a 2 min recording period between each addition. Following the vehicle period, eight increasing concentrations of test sample were applied from 0.003 μM to 10 μM as a single bolus addition per test concentration, and the effects on hERG tail current amplitude measured during the 2 min recording period. Each eight-point concentration-response curve was constructed using cumulative single sample additions of each concentration to the same cell. The positive control used in this study was verapamil hydrochloride (Tocris, Cat #0654, Batch #5A/61673) and prepared to a stock concentration of 10 mM in 100% DMSO and kept as frozen aliquots.
Data analysis: All cells passing the QC parameters (i.e. >200 pA outward current, membrane resistance and rundown) are selected as ‘passed QC’ using the QPatch software, which then calculates the mean peak current for the last three sweeps at the end of each concentration application period from the cursor positions defined. Percent inhibition is calculated for each test concentration application period as the reduction in mean cursor value (peak current or charge) relative to the cursor value measured at the end of the control (i.e. vehicle) period. The percent inhibition values from each cell are used to construct concentration-response curves employing a four parametric logistic fit with 0 and 100% inhibition levels fixed at very low and very high concentrations, respectively, and a free Hill slope factor. The IC50 (50% inhibitory concentration) and Hill coefficient are then determined, but only data from cells with Hill slopes within 0.5>nH<2.0 are included. The IC50 data reported below represents the mean (and S.D.) of at least three separate cells (N≥3). […] Compounds of the invention show reduced hERG inhibitory activity compared to the reference examples.

T1 sequence (Q12809 whole entry): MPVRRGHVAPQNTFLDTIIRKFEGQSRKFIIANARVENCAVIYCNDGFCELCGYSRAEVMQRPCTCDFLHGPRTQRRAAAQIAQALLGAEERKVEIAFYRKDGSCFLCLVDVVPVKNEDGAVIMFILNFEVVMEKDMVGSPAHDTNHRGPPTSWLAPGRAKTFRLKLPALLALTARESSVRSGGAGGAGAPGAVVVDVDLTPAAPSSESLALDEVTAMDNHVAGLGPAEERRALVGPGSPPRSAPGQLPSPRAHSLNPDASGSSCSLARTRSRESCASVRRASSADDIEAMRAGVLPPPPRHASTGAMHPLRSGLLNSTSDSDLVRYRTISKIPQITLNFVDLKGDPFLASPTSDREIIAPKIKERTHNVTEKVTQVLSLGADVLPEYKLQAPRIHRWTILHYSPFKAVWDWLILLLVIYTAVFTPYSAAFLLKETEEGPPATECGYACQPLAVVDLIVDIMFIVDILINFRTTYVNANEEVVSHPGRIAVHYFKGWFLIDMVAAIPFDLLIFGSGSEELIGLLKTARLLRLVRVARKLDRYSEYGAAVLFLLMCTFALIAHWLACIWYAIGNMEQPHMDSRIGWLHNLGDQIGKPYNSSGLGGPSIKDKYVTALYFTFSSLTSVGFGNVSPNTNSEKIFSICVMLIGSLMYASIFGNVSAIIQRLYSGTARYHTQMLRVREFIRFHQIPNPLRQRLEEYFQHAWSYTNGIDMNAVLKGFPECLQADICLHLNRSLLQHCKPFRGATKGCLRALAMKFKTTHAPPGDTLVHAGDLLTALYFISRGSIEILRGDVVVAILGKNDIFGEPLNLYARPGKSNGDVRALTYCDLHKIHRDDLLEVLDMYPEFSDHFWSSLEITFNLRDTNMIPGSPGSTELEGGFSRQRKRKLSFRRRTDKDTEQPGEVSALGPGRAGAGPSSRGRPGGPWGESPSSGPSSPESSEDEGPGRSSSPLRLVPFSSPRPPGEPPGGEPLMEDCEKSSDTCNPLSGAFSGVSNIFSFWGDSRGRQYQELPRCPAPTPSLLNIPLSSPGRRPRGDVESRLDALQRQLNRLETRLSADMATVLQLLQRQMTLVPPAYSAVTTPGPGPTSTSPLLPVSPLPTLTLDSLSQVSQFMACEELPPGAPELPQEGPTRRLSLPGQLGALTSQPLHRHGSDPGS

| Structure (SMILES) | pIC50 |
| --- | --- |
| Cc1c(-n2cc(C(=O)Nc3ccc(OC(F)(F)Cl)cc3)ccc2=O)cnn1C [Example 18, N-[4-[Chloro(difluoro)methoxy]phenyl]-1-(1,5-dimethylpyrazol-4-yl)-6-oxo-pyridine-3-carboxamide] | < 5.00 |
| Cn1cc(C(=O)Nc2ccc(OC(F)(F)F)cc2)ccc1=O [Example 26, 1-Methyl-6-oxo-N-[4-(trifluoromethoxy)phenyl]pyridine-3-carboxamide] | < 5.00 |
| Cn1cc(C(=O)Nc2ccc(OC(F)(F)Cl)cc2)cc(-c2cncnc2)c1=O [Example 82, N-[4-(Chlorodifluoromethoxy)phenyl]-1-methyl-6-oxo-5-(pyrimidin-5-yl)-1,6-dihydropyridine-3-carboxamide] | < 5.00 |
| O=C(Nc1ccc(OC(F)(F)Cl)cc1)c1cccc(-c2cncnc2)c1 [Ref. ex. 2, N-[4-[Chloro(difluoro)methoxy]phenyl]-3-pyrimidin-5-ylbenzamide, reference compound] | 5.72 |
| Cc1ccc(C(=O)Nc2ccc(OC(F)(F)F)cc2)cc1-c1cccnc1 [Ref. ex. 3, 4-Methyl-3-(3-pyridyl)-N-[4-(trifluoromethoxy)phenyl]benzamide, reference compound] | 5.60 |

System: not listed separately
Experiment: Kinetic aqueous solubility assay
Format: physicochemical
Details: aqueous buffer, kinetic from dmso stock, 0.05M potassium phosphate buffer pH 7.4, 250 μM spike, RT
Description: Using a 10 mM stock solution of test compound in 100% DMSO, test compounds were spiked into 0.05M potassium phosphate buffer (pH 7.4) at a final concentration of 250 μM. Samples in buffer (n=2 aqueous samples, in 96-well plates) were allowed to equilibrate at RT on an orbital shaker for 30 min (300 rpm) to induce precipitation of test compounds. The appearance of each sample was determined by visual examination and noted (clear, cloudy, precipitate observed etc.). […] The concentration of compound in phosphate buffer filtrate was determined by comparing the UV absorbance peak area of each replicate against that of the calibration standards. […] Compounds of the invention have much improved solubility compared to the reference examples.

| Structure (SMILES) | solubility at 30 min |
| --- | --- |
| O=C(Nc1ccc(OC(F)(F)F)cc1)c1ccc(=O)n(CCN2CCOCC2)c1 [Example 2, 1-(2-Morpholinoethyl)-6-oxo-N-[4-(trifluoromethoxy)phenyl]pyridine-3-carboxamide] | 215 µM (≈ 88.4 µg/mL) |
| Cn1ccc(-n2cc(C(=O)Nc3ccc(OC(F)(F)Cl)cc3)ccc2=O)n1 [Example 3, N-[4-(Chlorodifluoromethoxy)phenyl]-1-(1-methyl-1H-pyrazol-3-yl)-6-oxo-1,6-dihydropyridine-3-carboxamide] | 140 µM (≈ 55.3 µg/mL) |
| O=C(Nc1ccc(OC(F)(F)Cl)cc1)c1ccc(=O)n([C@H]2CCOC2)c1 [Example 4, N-[4-[Chloro(difluoro)methoxy]phenyl]-6-oxo-1-[(3S)-tetrahydrofuran-3-yl]pyridine-3-carboxamide] | 180 µM (≈ 69.3 µg/mL) |
| COc1ncc(-n2cc(C(=O)Nc3ccc(OC(F)(F)Cl)cc3)ccc2=O)cn1 [Example 12, N-[4-[Chloro(difluoro)methoxy]phenyl]-1-(2-methoxypyrimidin-5-yl)-6-oxo-pyridine-3-carboxamide] | 140 µM (≈ 59.2 µg/mL) |
| CN1CC[C@@H](n2cc(C(=O)Nc3ccc(OC(F)(F)Cl)cc3)ccc2=O)C1 [Example 16, N-[4-[Chloro(difluoro)methoxy]phenyl]-1-[(3R)-1-methylpyrrolidin-3-yl]-6-oxo-pyridine-3-carboxamide] | 180 µM (≈ 71.6 µg/mL) |
| Cc1c(-n2cc(C(=O)Nc3ccc(OC(F)(F)Cl)cc3)ccc2=O)cnn1C [Example 18, N-[4-[Chloro(difluoro)methoxy]phenyl]-1-(1,5-dimethylpyrazol-4-yl)-6-oxo-pyridine-3-carboxamide] | 200 µM (≈ 81.8 µg/mL) |
| N#Cc1cccc(-n2cc(C(=O)Nc3ccc(OC(F)(F)Cl)cc3)ccc2=O)c1 [Example 20, N-[4-(Chlorodifluoromethoxy)phenyl]-1-(3-cyanophenyl)-6-oxo-1,6-dihydropyridine-3-carboxamide] | 100 µM (≈ 41.6 µg/mL) |
| Cn1nccc1-n1cc(C(=O)Nc2ccc(OC(F)(F)Cl)cc2)ccc1=O [Example 25, N-[4-(Chlorodifluoromethoxy)phenyl]-1-(1-methyl-1H-pyrazol-5-yl)-6-oxo-1,6-dihydropyridine-3-carboxamide] | 170 µM (≈ 67.1 µg/mL) |
| O=C(Nc1ccc(OC(F)(F)Cl)cc1)c1ccc(=O)n(-c2cnn(C(F)F)c2)c1 [Example 27, N-[4-(Chlorodifluoromethoxy)phenyl]-1-[1-(difluoromethyl)-1H-pyrazol-4-yl]-6-oxo-1,6-dihydropyridine-3-carboxamide] | 100 µM (≈ 43.1 µg/mL) |
| Cn1ncc(-n2cc(C(=O)Nc3ccc(OC(F)(F)Cl)cc3)ccc2=O)c1Cl [Example 30, 1-(5-Chloro-1-methyl-1H-pyrazol-4-yl)-N-[4-(chlorodifluoromethoxy)phenyl]-6-oxo-1,6-dihydropyridine-3-carboxamide] | 140 µM (≈ 60.1 µg/mL) |
| N#Cc1cncc(-n2cc(C(=O)Nc3ccc(OC(F)(F)Cl)cc3)ccc2=O)c1 [Example 55, N-[4-[Chloro(difluoro)methoxy]phenyl]-1-(5-cyano-3-pyridyl)-6-oxo-pyridine-3-carboxamide] | 150 µM (≈ 62.5 µg/mL) |
| Cc1cncc(-n2cc(C(=O)Nc3ccc(OC(F)(F)Cl)cc3)ccc2=O)c1 [Example 57, N-[4-[Chloro(difluoro)methoxy]phenyl]-1-(5-methyl-3-pyridyl)-6-oxo-pyridine-3-carboxamide] | 170 µM (≈ 69 µg/mL) |
| COc1cc(C(=O)Nc2ccc(OC(F)(F)Cl)cc2)cn(-c2cncnc2)c1=O [Example 58, N-[4-[Chloro(difluoro)methoxy]phenyl]-5-methoxy-6-oxo-1-pyrimidin-5-yl-pyridine-3-carboxamide] | 180 µM (≈ 76.1 µg/mL) |
| Cc1cc(C(=O)Nc2ccc(OC(F)(F)Cl)cc2)cn(-c2cncnc2)c1=O [Example 59, N-[4-[Chloro(difluoro)methoxy]phenyl]-5-methyl-6-oxo-1-pyrimidin-5-yl-pyridine-3-carboxamide] | 190 µM (≈ 77.3 µg/mL) |
| O=C(Nc1ccc(OC(F)(F)Cl)cc1)c1cc(N2CCOCC2)c(=O)n(-c2cncnc2)c1 [Example 60, N-[4-(Chlorodifluoromethoxy)phenyl]-5-(morpholin-4-yl)-6-oxo-1-(pyrimidin-5-yl)-1,6-dihydropyridine-3-carboxamide] | 210 µM (≈ 100 µg/mL) |
| Cn1cc2ncc(-n3cc(C(=O)Nc4ccc(OC(F)(F)Cl)cc4)ccc3=O)cc2n1 [Example 71, N-[4-(Chlorodifluoromethoxy)phenyl]-1-{2-methyl-2H-pyrazolo[4,3-b]pyridin-6-yl}-6-oxo-1,6-dihydropyridine-3-carboxamide] | 110 µM (≈ 49 µg/mL) |
| Cn1cc(C(=O)Nc2ccc(OC(F)(F)Cl)cc2)cc(-c2cncnc2)c1=O [Example 82, N-[4-(Chlorodifluoromethoxy)phenyl]-1-methyl-6-oxo-5-(pyrimidin-5-yl)-1,6-dihydropyridine-3-carboxamide] | 170 µM (≈ 69.2 µg/mL) |
| O=C(Nc1ccc(OC(F)(F)Cl)cc1)c1cccc(-c2cncnc2)c1 [Ref. ex. 2, N-[4-[Chloro(difluoro)methoxy]phenyl]-3-pyrimidin-5-ylbenzamide, reference compound] | 9 µM (≈ 3.38 µg/mL) |
| Cc1ccc(C(=O)Nc2ccc(OC(F)(F)F)cc2)cc1-c1cccnc1 [Ref. ex. 3, 4-Methyl-3-(3-pyridyl)-N-[4-(trifluoromethoxy)phenyl]benzamide, reference compound] | 56 µM (≈ 20.9 µg/mL) |
